Measurements reported in article PMC12679610, “Impact of supersaturation on growth, critical radius, and size in neomycin nanoparticle crystallization using anti-solvent and CTAB” (RSC Advances, 2025).

Assays:
[1] = Solubility of neomycin sulfate in water-acetone in the presence of CTAB; format: physicochemical
Method: In this section, the method for the synthesis of neomycin nanoparticles is explained in detail. First, an exact amount of neomycin powder (purity ≥ 95%) was weighed using a digital analytical balance (accuracy: […]) based on the desired equilibrium concentration. The weighed neomycin was then added to 10 g of double-distilled water (25 °C). To ensure complete dissolution, the mixture was homogenized using a magnetic stirrer at controlled speeds of 300, 350, 400, and 450 rpm for 20 minutes. This range of stirring speeds was selected to investigate the effect of shear force on solution homogeneity. After confirming the homogeneity of the neomycin solution, a predetermined amount of CTAB surfactant with a concentration established from prior studies was added to the beaker. To achieve optimal mixing, the stirring system was activated at a constant speed between 300 and 450 rpm, and the mixing process continued until equilibrium was reached. The solution temperature was continuously monitored using a calibrated digital thermometer (±0.1 °C). A turbidity sensor was installed 2 cm from the crystallizer wall to measure changes in turbidity. Pure acetone (HPLC grade) was added dropwise (0.02 mL per drop) at 5-minute intervals. The first signs of physical change (e.g., localized cloudiness) were recorded as the initial saturation point. Acetone addition continued until stable turbidity (supersaturation) was achieved under isothermal conditions (25 °C). The induction time (the interval between initial saturation and supersaturation), as clearly depicted in Fig. 1, Section C (the induction time segment of steps 1 to 4), was measure using a synchronized turbidimeter and reaction timer data. To ensure reproducibility, the entire process was repeated in four independent trials under controlled conditions (constant temperature, humidity, and lighting).
This study investigated the solubility enhancement of neomycin in the presence of CTAB stabilizer through controlled dynamic shock application. In contrast to the reference study,[29] which utilized PVP at a mixing speed of 300 rpm, the present experimental design involved the addition of 0.3 g neomycin to a 10 g solvent–antisolvent mixture under 350 rpm agitation, incorporating intermittent dynamic shocks consisting of 3-second pulses at 380 rpm. […] This significant improvement stems from synergistic effects between: (1) CTAB's molecular interactions (ionic complexation with neomycin molecules, surface tension reduction, and stable colloidal environment through spherical micelle formation) and (2) dynamic shock-induced phenomena (enhanced antisolvent penetration and uniform stabilizer distribution).[73] […] The findings underscore the critical importance of concurrent optimization of physicochemical parameters in antisolvent crystallization processes for pharmaceutical nanoparticles.[74]
(§1) This study comprehensively investigated the influence of CTAB surfactant on neomycin crystallization. […] The supersaturation (S), as the primary driving force, directly affects the induction time, critical radius, growth rate, solubility, nanoparticle size, and nucleation mechanism.[33] CTAB operates through selective adsorption on crystalline surfaces, substantially influencing the nucleation pathway.[75,76] […] Quantitative data for these parameters are presented in Table 2, with the growth rate (intensity %) and nanoparticle size data being experimentally derived from DLS analysis.

[2] = Critical nucleus radius calculated from classical nucleation theory (eqn S16); format: physicochemical; conditions: CTAB 0.6 g kg^−1, 25 °C
From the text: as §1
As previously explored in relation to supersaturation, growth rate, and nanoparticle size (Fig. 16), the experimental results shown in Fig. 17 further illustrate the critical radius, growth kinetics, and nanoparticle size across varying supersaturation levels.[86] Based on data obtained from DLS analysis and critical radius calculations (eqn S16), it is observed that decreasing supersaturation leads to a significant increase in crystal growth rates, resulting in the formation of larger nanoparticles.[14–16,87] […] This phenomenon follows fundamental crystallization kinetics principles where, at high supersaturation levels, the elevated concentration of solute species leads to the formation of a greater number of primary nuclei.[89] Simultaneously, the distribution of solute molecules among these numerous nuclei results in decreased growth rates for crystals, ultimately producing smaller nanoparticles with a […] size distribution.[86] The role of the CTAB stabilizer in this system is particularly crucial. Through surface adsorption mechanisms, CTAB not only prevents nanoparticle aggregation but also precisely modulates growth kinetics, enabling better control over final particle dimensions.[90] These synergistic effects contribute to the formation of colloidally stable nanoparticles with uniform size distributions. An important observation is the direct correlation between nucleation duration and critical particle size, where extended nucleation times cause the formation of smaller particles.[91] Furthermore, dynamic parameters such as agitation rate and controlled shock pulses serve as effective tools for fine-tuning nanoparticle characteristics.[92]

**Q.** With NC[C@@H]1O[C@H](O[C@H]2[C@@H](O)[C@H](O[C@@H]3[C@@H](O)[C@H](N)C[C@H](N)[C@H]3O[C@H]3O[C@H](CN)[C@@H](O)[C@H](O)[C@H]3N)O[C@@H]2CO)[C@H](N)[C@@H](O)[C@@H]1O.O=S(=O)(O)O [neomycin sulfate] as the molecule, how does the Solubility ([1]; 300 rpm, initial neomycin 20 g kg^−1, S 1.18, CTAB 0.6 g kg^−1, 25 °C) read?
**A.** 17 g/kg

**Q.** And the Solubility ([1]; 300 rpm, initial neomycin 20 g kg^−1, S 1.21, CTAB 0.6 g kg^−1, 25 °C)?
**A.** 16 g/kg

**Q.** And the Solubility ([1]; 300 rpm, initial neomycin 20 g kg^−1, S 1.33, CTAB 0.6 g kg^−1, 25 °C)?
**A.** 15 g/kg

**Q.** What about the Solubility ([1]; 300 rpm, initial neomycin 20 g kg^−1, S 1.45, CTAB 0.6 g kg^−1, 25 °C) of the same molecule?
**A.** 13.8 g/kg

**Q.** What about the Solubility ([1]; 300 rpm, initial neomycin 20 g kg^−1, S 1.66, CTAB 0.6 g kg^−1, 25 °C) of the same molecule?
**A.** 12 g/kg

**Q.** What about the Solubility ([1]; 350 rpm, initial neomycin 30 g kg^−1, S 1.2, CTAB 0.6 g kg^−1, 25 °C) of the same molecule?
**A.** 25 g/kg

**Q.** What about the Solubility ([1]; 350 rpm, initial neomycin 30 g kg^−1, S 1.25, CTAB 0.6 g kg^−1, 25 °C) of the same molecule?
**A.** 24 g/kg

**Q.** And the Solubility ([1]; 350 rpm, initial neomycin 30 g kg^−1, S 1.28, CTAB 0.6 g kg^−1, 25 °C)?
**A.** 23.5 g/kg

**Q.** What about the Solubility ([1]; 350 rpm, initial neomycin 30 g kg^−1, S 1.43, CTAB 0.6 g kg^−1, 25 °C) of the same molecule?
**A.** 21.1 g/kg

**Q.** What about the Solubility ([1]; 400 rpm, initial neomycin 40 g kg^−1, S 1.29, CTAB 0.6 g kg^−1, 25 °C) of the same molecule?
**A.** 31 g/kg

**Q.** What about the Solubility ([1]; 400 rpm, initial neomycin 40 g kg^−1, S 1.379, CTAB 0.6 g kg^−1, 25 °C) of the same molecule?
**A.** 29 g/kg

**Q.** And the Solubility ([1]; 400 rpm, initial neomycin 40 g kg^−1, S 1.48, CTAB 0.6 g kg^−1, 25 °C)?
**A.** 27 g/kg

**Q.** What about the Solubility ([1]; 400 rpm, initial neomycin 40 g kg^−1, S 1.66, CTAB 0.6 g kg^−1, 25 °C) of the same molecule?
**A.** 24 g/kg

**Q.** And the Solubility ([1]; 400 rpm, initial neomycin 40 g kg^−1, S 1.9, CTAB 0.6 g kg^−1, 25 °C)?
**A.** 21 g/kg

**Q.** What about the Solubility ([1]; 450 rpm, initial neomycin 50 g kg^−1, S 1.351, CTAB 0.6 g kg^−1, 25 °C) of the same molecule?
**A.** 37 g/kg

**Q.** What about the Solubility ([1]; 450 rpm, initial neomycin 50 g kg^−1, S 1.47, CTAB 0.6 g kg^−1, 25 °C) of the same molecule?
**A.** 34 g/kg

**Q.** What about the Solubility ([1]; 450 rpm, initial neomycin 50 g kg^−1, S 1.666, CTAB 0.6 g kg^−1, 25 °C) of the same molecule?
**A.** 30 g/kg

**Q.** What about the Solubility ([1]; 450 rpm, initial neomycin 50 g kg^−1, S 1.785, CTAB 0.6 g kg^−1, 25 °C) of the same molecule?
**A.** 28 g/kg

**Q.** What about the Critical radius ([2]; 300 rpm, initial neomycin 20 g kg^−1, S 1.18) of the same molecule?
**A.** 1.689 nm

**Q.** And the Critical radius ([2]; 300 rpm, initial neomycin 20 g kg^−1, S 1.21)?
**A.** 1.467 nm

**Q.** What about the Critical radius ([2]; 300 rpm, initial neomycin 20 g kg^−1, S 1.33) of the same molecule?
**A.** 0.981 nm

**Q.** What about the Critical radius ([2]; 300 rpm, initial neomycin 20 g kg^−1, S 1.45) of the same molecule?
**A.** 0.753 nm

**Q.** And the Critical radius ([2]; 300 rpm, initial neomycin 20 g kg^−1, S 1.66)?
**A.** 0.552 nm

**Q.** What about the Critical radius ([2]; 350 rpm, initial neomycin 30 g kg^−1, S 1.2) of the same molecule?
**A.** 1.534 nm

**Q.** What about the Critical radius ([2]; 350 rpm, initial neomycin 30 g kg^−1, S 1.25) of the same molecule?
**A.** 1.254 nm

**Q.** What about the Critical radius ([2]; 350 rpm, initial neomycin 30 g kg^−1, S 1.28) of the same molecule?
**A.** 1.133 nm

**Q.** And the Critical radius ([2]; 350 rpm, initial neomycin 30 g kg^−1, S 1.43)?
**A.** 0.782 nm

**Q.** And the Critical radius ([2]; 350 rpm, initial neomycin 30 g kg^−1, S 1.67)?
**A.** 0.545 nm

**Q.** What about the Critical radius ([2]; 400 rpm, initial neomycin 40 g kg^−1, S 1.29) of the same molecule?
**A.** 1.099 nm

**Q.** What about the Critical radius ([2]; 400 rpm, initial neomycin 40 g kg^−1, S 1.379) of the same molecule?
**A.** 0.957 nm

**Q.** And the Critical radius ([2]; 400 rpm, initial neomycin 40 g kg^−1, S 1.48)?
**A.** 0.714 nm

**Q.** What about the Critical radius ([2]; 400 rpm, initial neomycin 40 g kg^−1, S 1.66) of the same molecule?
**A.** 0.552 nm

**Q.** And the Critical radius ([2]; 400 rpm, initial neomycin 40 g kg^−1, S 1.9)?
**A.** 0.436 nm

**Q.** And the Critical radius ([2]; 450 rpm, initial neomycin 50 g kg^−1, S 1.351)?
**A.** 0.932 nm

**Q.** And the Critical radius ([2]; 450 rpm, initial neomycin 50 g kg^−1, S 1.408)?
**A.** 0.817 nm

**Q.** What about the Critical radius ([2]; 450 rpm, initial neomycin 50 g kg^−1, S 1.47) of the same molecule?
**A.** 0.726 nm

**Q.** What about the Critical radius ([2]; 450 rpm, initial neomycin 50 g kg^−1, S 1.666) of the same molecule?
**A.** 0.548 nm

**Q.** What about the Critical radius ([2]; 450 rpm, initial neomycin 50 g kg^−1, S 1.785) of the same molecule?
**A.** 0.483 nm
